Entries after “also recorded” stand apart in the source; their conditions may differ. Read-outs that look alike come from different tables or passages of the source. Marks after values point to notes of the source that are not given here.

For data set [1], the system named is spontaneous dilated cardiomyopathy (J2N-k) hamster model. The data set is described as follows: Spontaneous dilated cardiomyopathy (J2N-k) hamster model, 8-week administration from 20 weeks of age (Tests 1-3): echocardiography, body weight. The procedure: The doses of pharmaceutical products were determined based on the no-observed-adverse-effect levels in a long-term toxicity study using rats. δ-Glycan-deficient spontaneous dilated cardiomyopathy (J2N-k) male hamsters (Japan SLC, Inc.) were delivered at 18 weeks of age. After a 2-week quarantine/acclimation, echocardiography was performed.
Each of the pharmaceutical products (A to K and O) was individually administered twice daily (at an interval of 8 hours or more) by oral gavage, and echocardiography was performed after 4 and 8 weeks (before dissection). Differences from the value before the start of administration (at the time of grouping) (amount of change: Δ) in each group were examined, and the cardiac function (EF value, FS %, etc.) was compared with that in the vehicle group (Group 1). Moreover, the heart was removed […] after the start of administration, and electron microscopy and RNA protein measurement were performed. Specimens for immunopathology were also collected and evaluated.
Each pharmaceutical product was individually suspended in 0.5% CMC-Na (sodium carboxymethylcellulose; Wako Pure Chemical Industries, Ltd.) before use, and administered. […] To Group 1 (control), 0.5% CNC-Na (vehicle) was administered.
Each pharmaceutical product was individually suspended in 0.5% CMC-Na (sodium carboxymethylcellulose; Wako Pure Chemical Industries, Ltd.) before use, and administered. Test substance G was suspended in distilled water before use, and administered.
Reason the doses were set (assuming that the adult body weight was 60 kg, the same amounts as the maximum clinical doses were set) • 1) The clinical dose of C (ozagrel; OZ) was 200 mg twice per day. The dose was thus set to 3.3 mg/kg twice per day. • 2) The clinical dose of D (cilostazol; CS) was 100 mg twice per day. The dose was thus set to 1.7 mg/kg twice per day. • 3) The clinical dose of E (pirfenidone; PF) was 600 mg three times per day, i.e., 1800 mg/day in total. The dose was thus set to 15 mg/kg twice per day. • 4) The clinical dose of G (nintedanib sulfonate; OB) was 150 mg twice per day. The dose was thus set to 2.5 mg/kg twice per day. • 5) The clinical dose of P (carvedilol; CV) was 10 mg twice per day. The dose was thus set to 0.17 mg/kg twice per day. • 6) Preparation 2 (PLGA⋅MS preparation of camostat; B⋅MS): the clinical dose of active substance camostat was 200 mg three times per day, i.e., 600 mg/day in total; thus, intermittent subcutaneous administration at a daily dose of 10 mg/kg once every 4 weeks, twice in total was set. The dose was 1/28 of the total oral dose amount.
The dose volume in oral administration was 5 mL/kg (the amount of liquid to be administered to each animal was calculated based on the most recent body weight), and administered by oral gavage using a polypropylene disposable syringe and a rat stomach tube.
The administration period of each pharmaceutical product was 8 weeks.

In data set [2] the test system is spontaneous dilated cardiomyopathy J2N-k baby hamsters. Description: J2N-k baby hamsters (Test 4): administration alone or in combination, echocardiography, body weight. The data set is classed as in vivo, hamster. The conditions noted are these: for % FS / EF (%) / value of change in E.F. compared with E.F. at 0 W / value of change in F.S. compared with F.S. at 0 W: Test 4, dose O 0.17, C 3.3, E 15, orally twice daily, mean ± S.D. The procedure: δ-Glycan-deficient spontaneous dilated cardiomyopathy (J2N-k) male hamsters (Japan SLC, Inc.) were delivered at 4 weeks of age. After a 1-week quarantine/acclimation, echocardiography was performed. The hamsters were grouped by stratified random assignment based on the EF values and the body weights so that each administration group was equalized.
Each test substance was individually administered twice daily (at an interval of 8 hours or more) by oral gavage, and echocardiography was performed 4 and 8 weeks after the start of administration (before dissection). Differences from the value before the start of administration (at the time of grouping) (amount of change: A) in each group were examined, and the cardiac function (EF value, FS %, etc.) was compared with that in the vehicle group (Group 1).
The doses were set according to the dose-setting basis in Test 3, and similarly orally administered twice daily. Effects of administration of combinations of two or three of carvedilol, which is a β-blocker widely used clinically, and ozagrel and/or pirfenidone were examined.

The conditions of data set [3]: cited from earlier work; for Cases with side effects (including laboratory test value abnormality): share of cases evaluated for safety.
A further data set relates to rats. The conditions noted are these: rats, cited from earlier work.
[4] abbreviates: Test 4, p.o. b.i.d., clinical dose.
[5] abbreviates: Test 2, p.o. b.i.d., NOAEL-based dose.
Where [6] appears, read: Test 2, p.o. b.i.d., NOAEL-based dose, listed as lovastatin.

Consider `COc1ccccc1OCCNCC(O)COc1cccc2[nH]c3ccccc3c12` (centres unmarked) [Compound O, Carvedilol], for which, in data set [1] (Test 3, clinical dose), the “Cardiac function (EF, FS %) actual measured value and/or amount of change compared with control, 8 W value” is given as “significant cardiac function improvement effect” and the “Cardiac function (EF, FS %) actual measured value or change rate compared with control, 4 W value” is “significant cardiac function improvement effect”. Also, the “Cardiac function improvement effect” value in data set [1] (Test 3, clinical dose, summary) is recorded as “cardiac function improvement effect was observed”. Further, the “Minimal effective dose (screening 2)” value in data set [1] (mg/kg twice per day, oral preparation) was determined as 0.17 mg/kg. Besides, the “Body weight 0 W” value in data set [2] (Test 4, at grouping) worked out at 71.5 g. In addition, the “Action on decrease in left ventricular systolic function” value in data set [2] (Test 4, clinical doses p.o. b.i.d., 8 weeks) is “significant suppression action on a decrease in left ventricular systolic function; also recorded: action of significantly suppressing a decrease in left ventricular systolic function”. Moreover, in data set [2] (setting [4]), the “Body weight 2 W” value turned out to be 84.2 g, the “Body weight 4 W” value turned out to be 92.6 g, the “Body weight 5 W” value is listed as 97.8 g and the “Body weight 6 W” value is on record as 101.3 g. In data set [2] (setting [4]), the “Body weight 7 W” value is on record as 104.0 g and the “Body weight 8 W” value is on record as 106.1 g. Also, in data set [2] (0 W (start of administration)), the “% FS” value is recorded as 38.8 ± 3.0% and the “EF (%)” value came out at 76.9 ± 3.4%. Also, in data set [2] (4 W), the “% FS” value stood at 34.4 ± 1.8%, the “EF (%)” value stood at 71.7 ± 2.3%, the “value of change in E.F. compared with E.F. at 0 W” value is given as <−5.2 ± 2.3> % and the “value of change in F.S. compared with F.S. at 0 W” value was <−4.4 ± 2.1> %. In data set [2] (8 W), the “% FS” value is on record as 30.1 ± 1.3%, the “EF (%)” value came to 65.8 ± 1.9%, the “value of change in E.F. compared with E.F. at 0 W” value is given as <−11.1 ± 3.8> % and the “value of change in F.S. compared with F.S. at 0 W” value is given as <−8.7 ± 3.2> %.

`Cn1c(=O)c2[nH]cnc2n(C)c1=O` [Compound H, Theophylline]: in data set [1] (Test 2, p.o. b.i.d.), the “LVIDd 4 W” value is given as 7.0 mm, the “LVIDd 8 W” value came to 7.3 mm, the “LVIDs 4 W” value is on record as 5.9 ± mm and the “LVIDs 8 W” value worked out at 6.3 mm. In data set [1] (setting [5]), the “% FS 4 W” value is “not significantly higher” and the “% FS value of change at 4 W compared with 0 W” value (“% FS value of change at 4 W” below) was “not significantly higher”. Besides, in data set [1] (hamster, in vivo), the “Body weight 0 W” value is listed as 121.4 g. In data set [1] (hamster, in vivo, po), the “Body weight 1 W” value was found to be 120.2 g, the “Body weight 2 W” value was found to be 120.2 g, the “Body weight 3 W” value is 121.0 g and the “Body weight 4 W” value is 122.4 g. In addition, in data set [1] (hamster, in vivo, po), the “Body weight 6 W” value is recorded as 122.6 g and the “Body weight 8 W” value is 123.6 g. Further, in data set [3] (human, in vivo), the “Headache (headache/heavy-headedness) cases” value is 2.56%, the “Nausea cases (cilostazol: nausea/vomiting)” value is given as 4.05% and the Palpitations cases is on record as 1.17%. In data set [3], the “Cases with side effects (including laboratory test value abnormality)” value is 9.05%.

In the case of Lovastatin calcium [Compound J], in data set [1] (Test 2, 8 weeks after start of administration, 5 mg/kg b.i.d.), the “Body weight lower than that in the control group” value is “about 10%”. In data set [1] (Test 2, at grouping), the “% FS 0 W” value is 17 ± 2%, the “Body weight 0 W” value turned out to be 122.9 g, the “EF 0 W” value came to 43 ± 3% and the “LVIDd 0 W” value worked out at 6.7 mm. Besides, in data set [1] (Test 2, at grouping), the “LVIDs 0 W” value is 5.6 mm. Also, in data set [1] (Test 2, p.o. b.i.d.), the “LVIDd 4 W” value came to 7.1 mm, the “LVIDd 8 W” value amounted to 7.4 mm, the “LVIDs 4 W” value was 6.0 mm and the “LVIDs 8 W” value is on record as 6.3 ± mm. For the same molecule, in data set [1] (setting [5]), the “% FS 4 W” value came out at 15 ± 1%, the “% FS 8 W” value was 14 ± 1%, the “% FS value of change at 4 W” value is reported as <−2 ± 1> % and the “% FS value of change at 8 W compared with 0 W” value is <−3 ± 1> %. For the same molecule, in data set [1] (setting [5]), the “Body weight 3 W” value was 120.8 g, the “Body weight 5 W” value is 120.3 * g, the “Body weight 7 W” value is given as 118.7 ** g and the “Body weight 8 W” value is 118.0 * g. Further, in data set [1] (setting [5]), the “EF 4 W” value came to 39 ± 2%, the “EF 8 W” value was 37 ± 2%, the “EF value of change at 4 W compared with 0 W” value is given as <−4 ± 1> % and the “EF value of change at 8 W compared with 0 W” value is listed as <−6 ± 3> %. Further, in data set [1] (setting [6]), the “% FS 4 W” value is recorded as “not significantly higher” and the “% FS value of change at 4 W” value is given as “significantly higher”. In addition, the “LVIDs 8 W” value in data set [1] (Test 2, p.o. b.i.d., listed as lovastatin) was “significantly lower”. Besides, the No-observed-adverse-effect level in the data set on rats (1 month) is on record as 15 mg/kg. For the same molecule, in the data set on rats (6 months), the No-observed-adverse-effect level is 2 mg/kg. Besides, in the data set with rats (13 weeks / 3 months), the No-observed-adverse-effect level is 10 mg/kg. For the same molecule, in data set [3] (human, in vivo), the “CK (CPK) elevation cases” value is given as 1.6%, the “Elevated AST (GOT) and/or ALT (GPT) / liver enzyme cases” value is reported as 1.7% and the Muscle pain cases is 3.2%. Moreover, the “Cases with side effects (including laboratory test value abnormality)” value in data set [3] is listed as 18.8%.

Values taken from patent publication US20200360391A1, “Medicinal Composition for Treating Intractable Heart Disease” (Osaka University, priority 2016, published 2020).
